The source made the active and inactive calls.
Tests used:
[1] = biological target: Beta-1 adrenergic receptor (Cavia porcellus) (UniProt B0FL73); experiment: Stimulation or blockade of Beta-1 adrenergic receptor on guinea pig atria up to a dose of 10e-4 M
[2] = biological target: Beta-2 adrenergic receptor (Canis lupus familiaris) (UniProt P54833); experiment: Stimulation or blockade of Beta-2 adrenergic receptor on guinea pig trachea up to a dose of 10e-4 M; settings: Cavia porcellus; target entry is the homologue from another species
Chain of Beta-2 adrenergic receptor (Canis lupus familiaris) (P54833 whole entry, looked up): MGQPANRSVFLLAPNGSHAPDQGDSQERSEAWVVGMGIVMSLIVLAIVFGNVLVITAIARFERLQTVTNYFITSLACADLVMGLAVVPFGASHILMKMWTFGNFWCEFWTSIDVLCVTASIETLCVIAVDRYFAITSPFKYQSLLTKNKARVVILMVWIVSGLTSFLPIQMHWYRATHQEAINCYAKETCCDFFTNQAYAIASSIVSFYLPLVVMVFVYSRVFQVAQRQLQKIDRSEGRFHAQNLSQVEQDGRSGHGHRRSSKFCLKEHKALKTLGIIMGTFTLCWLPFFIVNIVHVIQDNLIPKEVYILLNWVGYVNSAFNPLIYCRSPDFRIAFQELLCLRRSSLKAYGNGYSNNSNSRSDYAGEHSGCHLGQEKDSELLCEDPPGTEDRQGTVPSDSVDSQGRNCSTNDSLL

[3] = Stimulation or blockade of Alpha adrenergic receptor on rat vas deferens up to a dose of 10e-4 M; format: tissue-based

Measured: Activity

Chain of Beta-1 adrenergic receptor (Cavia porcellus) (B0FL73 1-467): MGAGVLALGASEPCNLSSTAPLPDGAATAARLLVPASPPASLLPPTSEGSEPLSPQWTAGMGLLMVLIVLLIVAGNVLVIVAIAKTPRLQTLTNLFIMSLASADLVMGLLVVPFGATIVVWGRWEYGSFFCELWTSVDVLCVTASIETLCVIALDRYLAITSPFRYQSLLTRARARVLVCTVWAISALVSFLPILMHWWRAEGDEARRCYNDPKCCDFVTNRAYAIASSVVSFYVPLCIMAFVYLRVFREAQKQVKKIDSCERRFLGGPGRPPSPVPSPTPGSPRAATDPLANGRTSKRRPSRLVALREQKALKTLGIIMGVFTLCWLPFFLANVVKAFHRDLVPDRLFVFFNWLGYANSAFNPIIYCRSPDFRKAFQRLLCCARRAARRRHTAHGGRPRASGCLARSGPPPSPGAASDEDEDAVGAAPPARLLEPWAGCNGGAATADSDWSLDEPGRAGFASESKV

CC(C)NC1C2CCC(C2)C1(O)c1ccc(O)c(O)c1 (stereo unspecified)
inactive: all assays above

NC1C2CCC(C2)C1(O)c1ccc(O)c(O)c1 (stereo unspecified)
inactive: all assays above

Reference: ChEMBL document CHEMBL1124449, “Synthesis and evaluation of the pharmacological activity of rigid analogues of sympathomimetic catecholamines derived from bicyclo[2.2.1]heptane” (J Med Chem, 1989)
